For one compound, tumor growth, B16F10 tumor growth and percent survival results are on record in patent publication US8957047B2, “GLA monotherapy for use in cancer treatment” (Immune Design Corp., priority 2013, dated 2015).

For experiment [1], the system named is B16F10 cells. Description: B16F10 model, GLA i.t. plus anti-CD40 i.t., suboptimal doses (Example 6). The note with it: GLA alone: 2 μg GLA-SE/2% SE i.t. on Day 8 and 15 post-tumor injection; FIG. 8B. The format is in vivo, mice. As for the experimental part: To determine whether anti-CD40 exerted anti-tumor effects in the tumor microenvironment, tumor-bearing mice were given i.t. administrations of 2 μg GLA-SE/2% SE (or 2% SE vehicle control) on Day 8 and 15 post-tumor injection and i.t. administrations of 50 μg anti-CD40 (or 2A3 control antibody) on Day 5 and 12 post-tumor injection (FIG. 8B). Suboptimal doses for GLA and anti-CD40 were given to avoid masking of a possible synergistic effect of the combination.

Experiment [2] has as its system B16F10 cells. Description: B16F10 footpad model, GLA i.t. plus anti-CD40 i.p. (Example 6). The format is in vivo, C57B1/6 mice. As to conditions: GLA alone: 5 μg GLA-SE/2% SE i.t. from Day 4 every 3-4 days; FIG. 8A. As for the experimental part: Mice were given i.t. administrations of 5 μg GLA-SE/2% SE (or 2% SE vehicle control) plus i.p. administrations of anti-CD40 (or 2A3 control antibody) at 100 μg, starting on Day 4 and every 3-4 days thereafter until the end of study (FIG. 8A).

Experiment [3] relates to B16F10 cells. Briefly: B16F10 footpad model, optimal time to begin GLA administration (Example 5). In kind it is in vivo, C57BL/6 mice. The note with it: 5 μg GLA-SE/2% SE i.t. starting Day 4 post-tumor injection, every 3-4 days; FIG. 7A. As for the experimental part:
To determine the optimal time to begin GLA administration, female C57BL/6 mice (n=5 per group) were inoculated with 5×10^5 B16F10 cells, subcutaneously in the right footpad on Day 0. Mice were given intratumoral (i.t.) administrations of 5 μg GLA-SE/2% SE (or 2% SE vehicle control) on Day 4, Day 9, or Day 14, and every 3-4 days thereafter until the end of study.

The next experiment deals with B16 melanoma cells. Briefly: Murine B16 melanoma model, subcutaneous inoculation (Example 1). The format is in vivo, mice. As to conditions: 5 μg GLA-SE i.m. on Day 0, Day 9 and Day 14; relative to saline; FIG. 2. The procedure: The B16 murine melanoma model is an accepted animal model for both solid tumor formation as well as metastasis (see e.g., Curr Protoc Immunol. 2001 May; CHAPTER 20: Unit-20.1. doi:10.1002/0471142735.im2001s39). In this study, mice were inoculated subcutaneously with 3×10^5 B16 cells on Day minus 9 (n=10 per group). Mice were treated with either saline or 5 μg GLA-SE i.m. on Day 0, Day 9 and Day 14.

Experiment [4] concerns B16F10 cells. Briefly: B16F10 footpad model, GLA plus checkpoint inhibitor (Example 5). In kind it is in vivo, C57B1/6 mice. As to conditions: GLA alone: 5 μg GLA-SE/2% SE i.t. from Day 4 every 3-4 days; FIG. 7B. The procedure:
Mice were given i.t. administrations of 5 μg GLA-SE/2% SE (or 2% SE vehicle control) plus intraperitoneal (i.p.) administrations of a CPI [anti-PDL1, anti-PD1, anti-CTLA4 (clone 9H10), anti-CTLA4 (clone 9D9), or LTF2 control antibody] at 100 μg starting on Day 4 and every 3-4 days thereafter until the end of study.

Regarding `CCCCCCCCCCCCCC(=O)O[C@H](CCCCCCCCCCC)CC(=O)O[C@@H]1[C@@H](NC(=O)C[C@H](CCCCCCCCCCC)OC(=O)CCCCCCCCCCCCC)[C@H](OC[C@H]2O[C@H](O)[C@H](NC(=O)C[C@H](O)CCCCCCCCCCC)[C@@H](OC(=O)C[C@H](O)CCCCCCCCCCC)[C@@H]2O)O[C@H](CO)[C@H]1OP(=O)(O)O` [GLA, glucopyranosyl lipid A], the tumor growth entry with B16F10 cells [1] is given as “delayed tumor growth”. In addition, the B16F10 tumor growth result with B16F10 cells [2], with B16F10 cells [3] and in the experiment on B16F10 cells [4] was “delayed B16F10 tumor growth” each time. In the experiment with B16 melanoma cells, the percent survival result is listed as “improved survival rate”.
